Measured values published in patent publication US20250044299A1, “PROTEIN STABILITY ASSAY” (Medicines Discovery Catapult Limited, priority 2021, published 2025).

Assays:
[1] = biological target: T1, p38α MAPK (Homo sapiens, UniProt Q16539); assay: Protein stability assay, HeLa p38α HiBiT cell lysate, HiBiT endpoint compared with AlphaLISA endpoint (Example 7); format: binding; parameters: lysate of HeLa p38α MAPK-linked HiBiT® endogenously tagged cells; endogenous in cells; host or cells: HeLa p38α HiBiT (genome-edited, endogenously tagged)
Target sequence in this assay (Q16539 2-360): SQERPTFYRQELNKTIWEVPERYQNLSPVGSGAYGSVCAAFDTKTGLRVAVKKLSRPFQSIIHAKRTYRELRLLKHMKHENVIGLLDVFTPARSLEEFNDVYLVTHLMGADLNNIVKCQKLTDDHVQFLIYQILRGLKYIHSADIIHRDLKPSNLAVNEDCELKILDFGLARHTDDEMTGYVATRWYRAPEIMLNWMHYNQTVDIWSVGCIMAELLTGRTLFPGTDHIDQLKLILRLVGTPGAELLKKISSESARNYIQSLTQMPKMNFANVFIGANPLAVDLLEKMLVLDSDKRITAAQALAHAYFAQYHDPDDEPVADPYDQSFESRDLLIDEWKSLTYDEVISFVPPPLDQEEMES
Protocol: Hela cells expressing the p38α target protein as a C-terminal fusion with a small peptide that includes the Promega HiBit® amino acid sequence were used as the starting material for lysate generation.
A solution containing 1:100 LgBiT® Protein and 1:100 Nano-Glo HiBiT® Lytic Substrate in PBS was created in a suitable volume. […] After incubation the plate was read on a luminescence detecting plate reader (3600 gain, 470-480 emission) to determine well signals.

[2] = biological target: T1, p38α MAPK; assay: Protein stability assay, AlphaLISA endpoint, HEK293T cell lysate, AEA titration (Example 1); format: binding; parameters: endogenous in cells; host or cells: HEK293T; details: compound at 10 or 100 μM, vs DMSO only
Protocol: Lysate from HEK293T cells grown in continuous culture at 5% CO2/37° C. in full growth media (RPMI (Gibco 11835-063), 10% FCS (Gibco F7524) 1% Glutamax (Gibco 35050-061)) was produced by growing cells in flasks to 85% confluence, removing from the surface using 3 ml Tryple Select (Gibco 12563011), centrifuging (1000 rpm for 4 minutes) to pellet, washing cell pellet two times in DPBS (Gibco 14190-094), resuspending in 1 ml of DPBS (Gibco 14190-094) containing 1× HALT Protease and Phosphatase inhibitor cocktail (Thermo Scientific 78440) per flask and lysing by three cycles of a liquid nitrogen freeze followed by thawing at room temperature. […]
To run the protein stability assay, an aliquot of HEK293T cell lysate at 4 μg/μl was thawed at room temperature and 2 μl added to each well of a 384-well White ProxiPlate (Perkin Elmer 6008280) containing […], 100 μM AMG-548 (Bio-Techne 3920/10) or an equivalent volume of DMSO dosed using the Labcyte ECHO. […] While incubating, fresh 100% AEA (Acetone (11443733), Ethanol (10437341) and Acetic Acid (10365020), all from Fisher Scientific in a ratio of 50:50:0.1) denaturant was made in a glass bottle ready for use. An aliquot of 100% AEA was diluted to 50% in DPBS (Gibco 14190-094) ready to produce titration curves of denaturant. […]
Target sequence in this assay (Q16539 whole entry): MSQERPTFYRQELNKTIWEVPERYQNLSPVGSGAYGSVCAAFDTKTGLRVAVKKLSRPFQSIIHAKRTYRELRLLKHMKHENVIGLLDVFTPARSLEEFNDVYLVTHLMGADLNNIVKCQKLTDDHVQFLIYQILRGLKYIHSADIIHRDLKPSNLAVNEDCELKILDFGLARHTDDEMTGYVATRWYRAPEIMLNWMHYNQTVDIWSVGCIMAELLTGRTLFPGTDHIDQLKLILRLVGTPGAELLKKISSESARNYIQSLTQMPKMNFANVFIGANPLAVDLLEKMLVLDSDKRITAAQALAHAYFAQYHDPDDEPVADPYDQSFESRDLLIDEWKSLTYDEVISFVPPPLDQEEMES

[3] = biological target: T2, p38α (Homo sapiens, UniProt Q16539); assay: Chemical protein stability assay, single-well per test compound format, AlphaLISA, HEK293T cell lysate (Example 9); format: binding; details: 10 μM compound, 384-well single wells
T2 construct: endogenous in cells; host or cells: HEK293T
Protocol: For signal detection an antibody detection mix was made up no more than 20 minutes prior to use.

[4] = biological target: T1, p38α MAPK; assay: Whole cell protein stability assay, AlphaLISA endpoint, intact HEK293T cells, EA titration (Example 4); format: cell-based; parameters: endogenous in cells; host or cells: HEK293T; details: 10 μM compound as printed, vs DMSO only
Protocol: HEK293T cells were grown in media (RPMI (Gibco 11835-063), 10% FCS (Gibco F7524) 1% Glutamax (Gibco 35050-061)) to approximately 85% confluence in a flask before harvesting from the surface using 3 ml Tryple Select (Gibco 12563011), washing cell pellet once in DPBS (Gibco 14190-094) and resuspending in media. Cells were counted and diluted in media to a density of 1×10^7 cell/ml.
To run the protein stability assay 5 μl of cells at a density of 1×10^7 cell/ml was added to each well of a 384-well White ProxiPlate ([…]) or an equivalent volume of DMSO dosed using the Labcyte ECHO. The contents of the plate were settled by a short pulse spin, sealed with a TopSeal-A Plus plate seal (Perkin Elmer 6050185) and the compound/lysate mixes incubated at ambient temperature for 30 minutes to 1 hour to allow potential target engagement by compound to occur. While incubating, fresh 100% EA (Ethanol (10437341) and Acetic Acid (10365020), all from Fisher Scientific in a ratio of 100:0.1) denaturant was made in a glass bottle ready for use. 100% EA was used to produce a titration curve of denaturant. […]
The dilution series to be added was made up as a 2× stock so that when 5 μl of denaturant was added to 5 μl lysate the final volume was 10 μl. […] After incubation the plate was read on a fluorescence detecting plate reader (Excitation 680 nm, Emission 615 nm) to determine well signals.
Target sequence in this assay (Q16539 whole entry): as above

T2 sequence (Q16539 whole entry): as above

- stabilisation of p38α MAPK target protein (shift of denaturant titration curves) ([1]; 100 μM compound, AEA and EA titration, HiBiT or AlphaLISA endpoints, vs DMSO only): clear shift between the titration curves
- effect of compound on protein unfolding, concentration response curves ([1]; HiBiT endpoint, fixed dose of denaturant): clear dose dependent effect
- single-well signal vs minimum signal (22% EA, DMSO vehicle) [3]: higher Maximum effect signal
SMILES: Cn1c(NC[C@@H](N)Cc2ccccc2)nc(-c2ccncc2)c(-c2ccc3ccccc3c2)c1=O [AMG-548]
- stabilisation of p38α MAPK protein (shift in protein denaturation curves) [2]: stabilisation of p38α MAPK protein in a dose dependent manner
- stabilisation of p38α MAPK protein (shift in protein denaturation curves) [4]: stabilisation of p38α MAPK protein compared to DMSO only treatment
